Drawing on patent US20260248787A9, “MEDICAMENT FOR TREATING CANCER COMPRISING OPTICALLY ACTIVE AZABICYCLO RING DERIVATIVE” (Sumitomo Pharma Co., Ltd., priority 2023, published 2026), this text covers T/C for one molecule.

This experiment deals with MOLM-13 cells. The experiment can be described thus: Tumor-bearing mice transplanted with MOLM-13 cells, with gilteritinib, T/C (Example 12). In kind it is in vivo. Conditions: MOLM-13 tumor-bearing mice; oral; 30 mg/kg; 18 days. The method, then:
The antitumor effects of the present compound and gilteritinib were evaluated. The present compound was weighed and dissolved in 0.5 w/v % Methyl Cellulose 400 solution to give the compound concentrations of 20 mg/mL and 10 mg/mL. Gilteritinib was weighed and suspended in 0.5 w/v % Methyl Cellulose 400 solution to give the compound concentrations of 3 mg/mL.
MOLM-13 cells (DSMZ) were intradermally implanted around the ventral region of 5-week old NOD. CB17-PrkdcSCID/J mice (female, The Jackson Laboratory Japan) at 1×10^6 cells/mouse. After confirming the engraftment of MOLM-13 cells 6 days after the transplantation, the present compound was orally administered to the mice at a dose of 100 mg/kg or 200 mg/kg, and gilteritinib was orally administered to the mice at a dose of 30 mg/kg, once a day for 18 days. The tumor volume was measured over time from the start of the administration, and the reduction effect of the tumor volume due to the compound-administration was evaluated. The tumor volume was calculated by the following formula using short axis and long axis of the tumor measured with an electronic caliper (Mitutoyo).
The control administration group in which only the solvent was administered and the test substance administration group were compared, and T/C was calculated using the following formula to evaluate the antitumor effect.

`CCc1nc(C(N)=O)c(Nc2ccc(N3CCC(N4CCN(C)CC4)CC3)c(OC)c2)nc1NC1CCOCC1` [gilteritinib, reference compound]: the T/C – broadly, the result in the treated group divided by that in the control group, in per cent – is reported as 5.3%.
